Laboratory results as given in patent US20130014428A1, “METHODS OF MONITORING AND CONTROLLING THE WALNUT TWIG BEETLE, PITYOPHTHORUS JUGLANDIS” (The United States of America as Represented by the …, priority 2011, published 2013).

Legend:
P. juglandis = experiment: GC-EAD (electroantennal detection) of volatile extract; design: species or system Pityophthorus juglandis; details: extract of J. hindsii with male and female P. juglandis feeding 45 hr
Procedure: Gas Chromatography-Electroantennal Detection (GC-EAD). GC-EAD analysis was performed on the extract of walnut (Juglans hindsii) with male and female P. juglandis feeding for 45 hr (pentane extract (7)). The sample was analyzed with an HP5890 GC with the following conditions: DB-5 column 30 m×0.32, oven 50° C. for 1 min, temperature programmed at 20° C./min to a final temperature of 280° C.

WTB [1] = experiment: Two release rate (pouch vs. bottle) experiment, 4-unit Lindgren funnel traps; assay type: in vivo, Pityophthorus juglandis; details: for trap catches, female WTB / trap catches, male WTB: N=40
Procedure: Field Testing of Various Release Rates of 3-methyl-2-buten-1-ol. The flight response of WTB to two release rates of 3-methyl-2-buten-1-ol was tested at the Wolfskill Experimental Orchards (the Juglans collection of the USDA ARS National Clonal Germplasm Repository in Winters, Solano Co., Calif.) in late spring. The two release rates were: 1) 15-80 mg/d (depending on temperature, as per manufacturer's data), delivered from a commercially available LDPE plastic pouch (Product #300000736, RD-1039, Contech Enterprises Inc., Delta, BC, Canada); and 2) 5 mg/d (based on laboratory assessments at 25° C. and 30° C.), delivered from a 15 ml polyethylene bottle charged with 15 ml of 3-methyl-2-buten-1-ol [≧98% chemical purity, product #W364703, SAFC (=Sigma-Aldrich), St. Louis Mo.]. The pouch or bottle was suspended in the middle of a 4-unit Lindgren funnel trap (Contech), attached to the funnel strut so it rested on the inside surface of the third funnel (counted from the trap top), without blocking the central axis/interior hole of the trap. The trap cup was filled with propylene glycol-based recreational vehicle/marine antifreeze to a depth of about 2.5 to 5 cm, and the traps were hung from poles at a height of approximately 3 m. (See Seybold, S. J., Dallara, P. L., Hishinuma, S. M., and Flint, M. L. Detecting and Identifying the Walnut Twig Beetle: Monitoring Guidelines for the Invasive Vector of Thousand Cankers Disease of Walnut, University of California Agriculture and Natural Resources, Statewide Integrated Pest Management Program, 11 pp., Apr. 30, 2012). The two treatments were replicated in four spatial blocks and the treatments were re-randomized between the two trap stations in a block each time the traps were emptied (nearly every day).
Statistical Analyses. Analysis of treatment effects for the pouch vs. bottle experiment was done by using a sign test. (See Zar, J. H. 2010. Biostatistical Analysis. 5th ed. Pearson Prentice Hall, Englewood Cliffs, N.J.) The other four experiments were analyzed for treatment effect by using Friedman's non-parametric analysis of variance. Id. In all experiments, males and females were analyzed separately. All treatments within experiments yielding a significant treatment effect were compared by using an a posteriori Nemenyi test with experimentwise α=0.05. Id. For all experiments, differences among proportions of female WTB responding to treatments were analyzed by comparing 95% confidence intervals determined with the Clopper-Pearson method. Id.

WTB [2] = experiment: Six release rate experiment, 4-unit Lindgren funnel traps; assay type: in vivo, Pityophthorus juglandis; details: for trap catches, female WTB / trap catches, male WTB: N=99
Procedure: In a separate experiment, the flight response of WTB to six release rates of 3-methyl-2-buten-1-ol was tested at the same location in early summer. The six release rates were: 1) 165 mg/d, from a capped 15 ml polyethylene bottle with a 0.48 cm hole drilled in the side of the cap, charged with 15 ml 3-methyl-2-buten-1-ol (Sigma-Aldrich); 2) 15-80 mg/d from the commercial LDPE plastic pouch (Contech); 3) 5 mg/d from a capped 15 ml polyethylene bottle charged with 15 ml 3-methyl-2-buten-1-ol (Sigma-Aldrich); 4) 5 mg/d from a capped 15 ml polyethylene bottle charged with 1 ml 3-methyl-2-buten-1-ol (Sigma-Aldrich); 5) 0.2 mg/d from a 400 μl closed Eppendorf polyethylene microcentrifuge tube charged with 300 μl 3-methyl-2-buten-1-ol (Sigma-Aldrich); and 6) an unbaited control. The 15 ml polyethylene bottles were purchased from Contech Enterprises (product #100000582/583); the 400 μl polyethylene Eppendorf microcentrifuge tubes were purchased from Evergreen Scientific (product #214-3417-020, Los Angeles, Calif.). These release devices were attached to 4-unit Lindgren funnel traps as described above. The six treatments were replicated in three spatial blocks and the treatments were re-randomized among the six trap stations in a block each time the traps were emptied (nearly every day). Statistical Analyses. Analysis of treatment effects for the pouch vs. bottle experiment was done by using a sign test. (See Zar, J. H. 2010. Biostatistical Analysis. 5th ed. Pearson Prentice Hall, Englewood Cliffs, N.J.) The other four experiments were analyzed for treatment effect by using Friedman's non-parametric analysis of variance. Id. In all experiments, males and females were analyzed separately. All treatments within experiments yielding a significant treatment effect were compared by using an a posteriori Nemenyi test with experimentwise α=0.05. Id. For all experiments, differences among proportions of female WTB responding to treatments were analyzed by comparing 95% confidence intervals determined with the Clopper-Pearson method. Id.

[3] = release rate 5 mg/d (bottle with 15 ml load)
[4] = release rate 15-80 mg/d (pouch)

CC(C)=CCO [X, 3-methyl-2-buten-1-ol]
antennal activity by GC-EAD (P. juglandis): antenally active
proportion of females responding (WTB [1]; higher release rate (15-80 mg/d)): 0.71
proportion of females responding (WTB [1]; lower release rate (5 mg/d)): 0.63
trap catches, female WTB (WTB [1]; [3]): 3072
trap catches, male WTB (WTB [1]; [3]): 1828
trap catches, female WTB (WTB [1]; [4]): 3085
trap catches, male WTB (WTB [1]; [4]): 1284
difference between release rate treatments (WTB [1]; two-sided sign test, pouch vs bottle): male response was greater for the lower release rate plastic bottle treatment
proportion of females responding (WTB [2]; 0.2 mg/d): 0.66
trap catches, female WTB (WTB [2]; 0.2 mg/d): 623
trap catches, male WTB (WTB [2]; 0.2 mg/d): 323
proportion of females responding (WTB [2]; 5 mg/d (1 ml load)): 0.71
trap catches, female WTB (WTB [2]; 5 mg/d (1 ml load)): 1084
trap catches, male WTB (WTB [2]; 5 mg/d (1 ml load)): 453
proportion of females responding (WTB [2]; 5 mg/d (15 ml load)): 0.72
trap catches, female WTB (WTB [2]; 5 mg/d (15 ml load)): 1534
trap catches, male WTB (WTB [2]; 5 mg/d (15 ml load)): 608
proportion of females responding (WTB [2]; 165 mg/d): 0.75
trap catches, female WTB (WTB [2]; 165 mg/d (15 ml load)): 612
trap catches, male WTB (WTB [2]; 165 mg/d (15 ml load)): 205
proportion of females responding (WTB [2]; 15-80 mg/d): 0.77
trap catches, female WTB (WTB [2]; 15-80 mg/d): 934
trap catches, male WTB (WTB [2]; 15-80 mg/d): 285
release rate giving highest flight response (WTB [2]; six release rates compared): highest response for both sexes was to the 5 mg/d release loaded with 15 ml of pheromone
